Bounds are passed on as bounds.

Chain of human Plasma Kallikrein (P03952 391-638 limits assumed): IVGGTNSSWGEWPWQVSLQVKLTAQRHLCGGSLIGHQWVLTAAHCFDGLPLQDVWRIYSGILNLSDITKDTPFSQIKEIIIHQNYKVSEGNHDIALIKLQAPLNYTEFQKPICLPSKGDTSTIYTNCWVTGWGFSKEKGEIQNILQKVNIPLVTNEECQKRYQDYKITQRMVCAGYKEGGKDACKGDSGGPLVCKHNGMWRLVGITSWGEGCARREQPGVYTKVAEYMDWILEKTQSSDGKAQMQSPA
Chain of human Plasma Kallikrein (P03952 20-390 partner limits assumed): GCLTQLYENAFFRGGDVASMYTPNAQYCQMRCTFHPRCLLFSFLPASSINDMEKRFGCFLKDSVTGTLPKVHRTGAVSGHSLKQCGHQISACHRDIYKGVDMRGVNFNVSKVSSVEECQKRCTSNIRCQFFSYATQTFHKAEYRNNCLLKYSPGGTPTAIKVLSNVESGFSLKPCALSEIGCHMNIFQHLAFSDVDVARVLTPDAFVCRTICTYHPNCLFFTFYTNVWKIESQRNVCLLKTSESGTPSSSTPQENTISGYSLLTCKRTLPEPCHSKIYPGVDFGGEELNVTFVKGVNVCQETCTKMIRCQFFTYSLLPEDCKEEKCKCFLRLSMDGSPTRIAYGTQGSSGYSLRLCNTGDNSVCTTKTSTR

The first experiment has as its target human Plasma Kallikrein (Homo sapiens (Human), UniProt P03952). Briefly: In vitro enzyme inhibition of human plasma kallikrein (Pro-Phe-Arg-AMC cleavage). It is filed as biochemical.
Details: not given
The protocol: The ability of the compounds disclosed herein to inhibit human plasma kallikrein activity was quantified according to the procedures below.
A 10 mM solution of the test compound was made in DMSO. This solution was serially diluted 1:5 in DMSO to yield 2000, 400, 80, 16, 3.2, 0.64, 0.128, 0.0256 and 0.00512 μM compound test solutions. A control tube containing only DMSO is included. 16 μL of each compound test solution was combined with 384 μL of assay buffer (50 mM Tris-HCl pH 7.5, 150 mM NaCl, 0.01% Triton X-100) to yield a “4× test compound buffer stock”.
Separately, a 40 nM solution of human Plasma Kallikrein (Abcam) and a 93.6 μM solution Pro-Phe-Arg-AMC (Bachem) were made using assay buffer. These solutions are hereby referred to as 4×hPK and 2×PFR-AMC, respectively.
60 μL of each 4× test compound buffer stock was combined with 60 μL of 4×hPK to yield 120 μL of “2× test compound buffer stock/2×hPK”. 50 μL was removed from this mixture and placed into duplicate wells on a Microfluor 1Black U-bottom microtiter plate (Thermo Scientific). This plate was incubated for 5 minutes at 37° C. To each well, 50 μL of pre-warmed 2×PFR-AMC was added to start the enzymatic reaction. Cleavage of PFR-AMC was monitored in a Biotek Synergy H4 reader set at 37° C. Readings are taken every 43 seconds for 1 hour. The highest mean velocity over 20 reads (˜15 minutes) is used to calculate the IC50. The IC50 is calculated using the Gen5 (Biotek Instruments).
The ability of the compounds listed in Table 2 to inhibit human plasma kallikrein activity was determined.
As to `COc1ccc2c(n1)c(C(=O)NCc1c(C)cc(N)nc1C)nn2Cc1ccc2ncc(Cl)cc2c1` [Example 137, N-((6-amino-2,4-dimethylpyridin-3-yl)methyl)-1-((3-chloroquinolin-6-yl)methyl)-5-methoxy-1H-pyrazolo[4,3-b]pyridine-3-carboxamide], the IC50 (as a rule, the concentration at which inhibition is half-maximal) is 100 to 1000 nM.
`Cc1cc(N)nc(C)c1CNC(=O)c1nn(Cc2ccc3ncc(Cl)cc3c2)c2cccc(N)c12` [Example 33, 4-amino-N-((6-amino-2,4-dimethylpyridin-3-yl)methyl)-1-((3-chloroquinolin-6-yl)methyl)-1H-indazole-3-carboxamide]: the IC50 was in the range of 100 to 1000 nM.
Take `COc1ncnc2c1c(C(=O)NCc1c(C)cc(N)nc1C)cn2Cc1ccc2ncc(Cl)cc2c1` [Example 131, N-((6-amino-2,4-dimethylpyridin-3-yl)methyl)-7-((3-chloroquinolin-6-yl)methyl)-4-methoxy-7H-pyrrolo[2,3-d]pyrimidine-5-carboxamide]: the IC50 is 100 to 1000 nM.
For the compound `COc1ccc2c(n1)c(C(=O)NCc1c(C)cc(N)nc1C)cn2Cc1ccc2ncc(Cl)cc2c1` [Example 128, N-((6-amino-2,4-dimethylpyridin-3-yl)methyl)-1-((3-chloroquinolin-6-yl)methyl)-5-methoxy-1H-pyrrolo[3,2-b]pyridine-3-carboxamide], the IC50 was in the range of 1000 to 10000 nM.

Still in this experiment, the particulars now being: human plasma kallikrein, PFR-AMC substrate, 37° C.; read-out: hPK IC50.
Take `Cc1cc(N)nc(C)c1CNC(=O)c1cn(Cc2ccc3ncc(Cl)cc3c2)nc1C(C)O` (stereo not shown) [Example 94, N-((6-amino-2,4-dimethylpyridin-3-yl)methyl)-1-((3-chloroquinolin-6-yl)methyl)-3-(1-hydroxyethyl)-1H-pyrazole-4-carboxamide]: the IC50 was less than 100 nM.
On to `Cc1cc(N)nc(C)c1CNC(=O)c1cn(Cc2ccc3ncc(Cl)cc3c2)nc1C(F)F` [Example 91, N-((6-amino-2,4-dimethylpyridin-3-yl)methyl)-1-((3-chloroquinolin-6-yl)methyl)-3-(difluoromethyl)-1H-pyrazole-4-carboxamide], for which the IC50 was less than 100 nM.
For the compound `Cc1cc(N)nc(C)c1CNC(=O)c1nn(Cc2ccc3ncc(Cl)cc3c2)c2ccnc(C#N)c12` [Example 76, N-((6-amino-2,4-dimethylpyridin-3-yl)methyl)-1-((3-chloroquinolin-6-yl)methyl)-4-cyano-1H-pyrazolo[4,3-c]pyridine-3-carboxamide], the IC50 was less than 100 nM.
Take `N#Cc1nn(Cc2ccc3ncc(Cl)cc3c2)cc1C(=O)NCc1cc2c(Cl)c[nH]c2cc1F` [Example 51, N-((3-chloro-6-fluoro-1H-indol-5-yl)methyl)-1-((3-chloroquinolin-6-yl)methyl)-3-cyano-1H-pyrazole-4-carboxamide]: the IC50 fell in the range of 100 to 1000 nM.
In the case of `Cc1cc(N)nc(C)c1CNC(=O)c1c[nH]c(Cc2ccc3ncc(Cl)cc3c2)n1` [Example 103, N-((6-amino-2,4-dimethylpyridin-3-yl)methyl)-2-((3-chloroquinolin-6-yl)methyl)-1H-imidazole-4-carboxamide], the IC50 was less than 100 nM.
On the same count and under the same terms, for `Cc1cc(N)nc(C)c1CNC(=O)c1[nH]c(Cc2ccc3ncc(Cl)cc3c2)nc1Br` [Example 106, N-((6-amino-2,4-dimethylpyridin-3-yl)methyl)-4-bromo-2-((3-chloroquinolin-6-yl)methyl)-1H-imidazole-5-carboxamide] the value was less than 100 nM; for `N#Cc1nn(Cc2cc(F)c3ncc(Cl)cc3c2)cc1C(=O)NCc1cnc2[nH]cc(Cl)c2c1` [Example 56, N-((3-chloro-1H-pyrrolo[2,3-b]pyridin-5-yl)methyl)-1-((3-chloro-8-fluoroquinolin-6-yl)methyl)-3-cyano-1H-pyrazole-4-carboxamide], less than 100 nM.
As to `O=C(NCc1ccc2[nH]cc(Cl)c2c1F)c1nnc(Cc2ccc3ncc(Cl)cc3c2)o1` [Example 43, N-((3-chloro-4-fluoro-1H-indol-5-yl)methyl)-5-((3-chloroquinolin-6-yl)methyl)-1,3,4-oxadiazole-2-carboxamide], the IC50 was in the range of 100 to 1000 nM.
For the compound “N-((6-amino-2,4-dimethylpyridin-3-yl)methyl)-1-((3-chloroquinolin-6-yl)methyl)-3-cyano-1H-1,2,4-triazole-5-carboxamide [Example 107]”, the IC50 is 100 to 1000 nM.
For the compound `Cc1cc(N)nc(C)c1CNC(=O)c1nn(Cc2ccc3ncc(Cl)cc3c2)c2cnc(C#N)cc12` [Example 130, N-((6-amino-2,4-dimethylpyridin-3-yl)methyl)-1-((3-chloroquinolin-6-yl)methyl)-5-cyano-1H-pyrazolo[3,4-c]pyridine-3-carboxamide], the IC50 is less than 100 nM.
As to `Cc1cc(N)nc(C)c1CNC(=O)c1cn(Cc2ccc3ncc(Cl)cc3c2)nc1CF` [Example 93, N-((6-amino-2,4-dimethylpyridin-3-yl)methyl)-1-((3-chloroquinolin-6-yl)methyl)-3-(fluoromethyl)-1H-pyrazole-4-carboxamide], the IC50 is less than 100 nM.
For the compound `Cc1cc(N)nc(C)c1CNC(=O)c1ncc(Cc2ccc3ncc(Cl)cc3c2)[nH]1` [Example 41, N-((6-amino-2,4-dimethylpyridin-3-yl)methyl)-5-((3-chloroquinolin-6-yl)methyl)-1H-imidazole-2-carboxamide], the IC50 is 100 to 1000 nM.
On the same count and under the same terms, the figure for `Cc1nc(N)ccc1CNC(=O)c1oc(Cc2ccc3ncc(Cl)cc3c2)nc1C#N` [Example 88, N-((6-amino-2-methylpyridin-3-yl)methyl)-2-((3-chloroquinolin-6-yl)methyl)-4-cyanooxazole-5-carboxamide] is 100 to 1000 nM; for `Cc1cc(N)nc(C)c1CNC(=O)c1cn(Cc2ccc3ncc(Cl)cc3c2)nc1CO` [Example 92, N-((6-amino-2,4-dimethylpyridin-3-yl)methyl)-1-((3-chloroquinolin-6-yl)methyl)-3-(hydroxymethyl)-1H-pyrazole-4-carboxamide] it is less than 100 nM; for `O=C(NCc1cc2c(Cl)c[nH]c2cc1F)c1nnc(Cc2ccc3ncc(Cl)cc3c2)o1` [Example 44, N-((3-chloro-6-fluoro-1H-indol-5-yl)methyl)-5-((3-chloroquinolin-6-yl)methyl)-1,3,4-oxadiazole-2-carboxamide] it is 100 to 1000 nM.
For the compound `Cc1cc(N)nc(C)c1CNC(=O)c1cnn(Cc2cc(F)c3ncc(Cl)cc3c2)c1C(N)=O` [Example 71, N4-((6-amino-2,4-dimethylpyridin-3-yl)methyl)-1-((3-chloro-8-fluoroquinolin-6-yl)methyl)-1H-pyrazole-4,5-dicarboxamide], the IC50 is more than 10000 nM.
For `Cc1nc(N)ccc1CNC(=O)c1nnc(Cc2ccc3ncc(Cl)cc3c2)o1` [Example 79, N-((6-amino-2-methylpyridin-3-yl)methyl)-5-((3-chloroquinolin-6-yl)methyl)-1,3,4-oxadiazole-2-carboxamide], the IC50 fell in the range of 100 to 1000 nM.
As for `Cc1cc(N)nc(C)c1CNC(=O)c1cn(Cc2ccc3ncc(Cl)cc3c2)c(CN)n1` [Example 112, N-((6-amino-2,4-dimethylpyridin-3-yl)methyl)-2-(aminomethyl)-1-((3-chloroquinolin-6-yl)methyl)-1H-imidazole-4-carboxamide], the IC50 lay within 100 to 1000 nM.
Regarding `Cc1cc(N)nc(C)c1CNC(=O)c1cn(C)c(Cc2ccc3ncc(Cl)cc3c2)n1` [Example 104, N-((6-amino-2,4-dimethylpyridin-3-yl)methyl)-2-((3-chloroquinolin-6-yl)methyl)-1-methyl-1H-imidazole-4-carboxamide], the IC50 was more than 10000 nM.
In the case of `O=C(NCc1cnc2[nH]cc(Cl)c2c1)c1nnc(Cc2ccc3ncc(Cl)cc3c2)o1` [Example 45, N-((3-chloro-1H-pyrrolo[2,3-b]pyridin-5-yl)methyl)-5-((3-chloroquinolin-6-yl)methyl)-1,3,4-oxadiazole-2-carboxamide], the IC50 was in the range of 100 to 1000 nM.
`Cc1cc(N)nc(C)c1CNC(=O)c1nc(Cc2ccc3ncc(Cl)cc3c2)c2ccccn12` [Example 23, N-((6-amino-2,4-dimethylpyridin-3-yl)methyl)-1-((3-chloroquinolin-6-yl)methyl)imidazo[1,5-a]pyridine-3-carboxamide]: the IC50 was less than 100 nM.
The same measure, in the same setting: for `Cc1cc(N)nc(C)c1CNC(=O)c1cn(Cc2ccc3ncc(Cl)cc3c2)c(C(N)=O)n1` [Example 111, N4-((6-amino-2,4-dimethylpyridin-3-yl)methyl)-1-((3-chloroquinolin-6-yl)methyl)-1H-imidazole-2,4-dicarboxamide] the value was 100 to 1000 nM; for `N#Cc1nn(Cc2cc(F)c3ncc(Cl)cc3c2)cc1C(=O)NCc1cc2c(Cl)c[nH]c2cc1F` [Example 53, N-((3-chloro-6-fluoro-1H-indol-5-yl)methyl)-1-((3-chloro-8-fluoroquinolin-6-yl)methyl)-3-cyano-1H-pyrazole-4-carboxamide], less than 100 nM; for `O=C(NCc1n[nH]c2ccc(Cl)cc12)c1nnc(Cc2ccc3ncc(Cl)cc3c2)o1` [Example 42, N-((5-chloro-1H-indazol-3-yl)methyl)-5-((3-chloroquinolin-6-yl)methyl)-1,3,4-oxadiazole-2-carboxamide], 100 to 1000 nM.
